Laboratory results: patent US12257247B2 (Monte Rosa Therapeutics AG, priority 2023, dated 2025)
Where two headings read alike, the source gives them in different places.

Target: T1, VAV1 (Homo sapiens, UniProt P15498+Q96SW2)
T1 construct: A heterozygous VAV1 C-terminal HiBiT knock-in pool was generated at Monte Rosa Therapeutics from a clonal Jurkat cell; endogenous in cells; host or cells: Jurkat clone stably expressing LgBiT, homozygous GSPT1-G575N; heterozygous VAV1-HiBiT knock-in pool
Test: VAV1 degradation activity, VAV1-HiBiT knock-in Jurkat luminescence assay (Example A, Table 1)
Assay type: cell-based
Details: VAV1-HiBiT knock-in Jurkat cells, luminescence read at 6 and 24 hours; for Dmax: Jurkat
In short: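 Jurkat cells carrying VAV1-HiBiT knock-in, plated in RPMI/10% FBS with Endurazine live-cell substrate and pre-incubated ~16 h at 37° C. Compound dosed from 10 μM stock; luminescence read 6 and 24 h later. Response normalised to plate negative/positive controls, EC50 from 3-parameter logistic fit (hillslope 1).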

[1] = read-out: VAV1 DC50 (nM), class

In the case of `Cn1ccc(COc2ccc(-c3cccc([C@H]4CCC(=O)NC4=O)c3Cl)cc2)n1` [Compound 213, (R)-3-(2-chloro-4′-((1-methyl-1H-pyrazol-3-yl)methoxy)-[1,1′-biphenyl]-3-yl)piperidine-2,6-dione], the Dmax (read-out: VAV1 Dmax %) is reported as 92%, the Dmax (read-out: VAV1 Dmax %, class) is reported as greater than 90% and the DC50 (read-out: VAV1 DC50) is reported as 101 nM. For the same compound, the DC50 [1] was 100 to 1000 nM.
`Cc1cccc(=O)n1-c1ccc(-c2cccc(C3CCC(=O)NC3=O)c2Cl)cc1` (stereo not drawn) [Compound 214, 3-(2-chloro-4′-(6-methyl-2-oxopyridin-1(2H)-yl)-[1,1′-biphenyl]-3-yl)piperidine-2,6-dione] showed a Dmax (read-out: VAV1 Dmax %) of 97.5%, a Dmax (read-out: VAV1 Dmax %, class) greater than 90% and a DC50 (read-out: VAV1 DC50) of 3.61 nM. For the same compound, the DC50 [1] was no more than 100 nM.
`O=C1CCC(c2cccc(-c3ccc(Nc4ccccn4)cc3)c2Cl)C(=O)N1` (stereo not drawn) [Compound 215, 3-(2-chloro-4′-(pyridin-2-ylamino)-[1,1′-biphenyl]-3-yl)piperidine-2,6-dione] showed a Dmax (read-out: VAV1 Dmax %) of 96.8%, a Dmax (read-out: VAV1 Dmax %, class) greater than 90% and a DC50 (read-out: VAV1 DC50) of 14.1 nM. For the same compound, the DC50 [1] was no more than 100 nM.
`C[C@H]1COC(=O)N1c1ccc(-c2cccc(C3CCC(=O)NC3=O)c2Cl)cc1` (stereo partly drawn) [Compound 216, 3-(2-chloro-4′-((S)-4-methyl-2-oxooxazolidin-3-yl)-[1,1′-biphenyl]-3-yl)piperidine-2,6-dione] showed a Dmax (read-out: VAV1 Dmax %) of 86.6%, a Dmax (read-out: VAV1 Dmax %, class) of 60 to 90% and a DC50 (read-out: VAV1 DC50) of 49 nM. The DC50 [1] was no more than 100 nM.
With `C[C@@H]1COC(=O)N1c1ccc(-c2cccc(C3CCC(=O)NC3=O)c2Cl)cc1` (stereo partly drawn) [Compound 217, 3-(2-chloro-4′-((R)-4-methyl-2-oxooxazolidin-3-yl)-[1,1′-biphenyl]-3-yl)piperidine-2,6-dione] the Dmax (read-out: VAV1 Dmax %) was 84.6%, the Dmax (read-out: VAV1 Dmax %, class) was 60 to 90% and the DC50 (read-out: VAV1 DC50) was 43 nM. For the same compound, the DC50 [1] was no more than 100 nM.
For `O=C1CCC(c2cccc(-c3ccc(-n4cccc(F)c4=O)cc3)c2Cl)C(=O)N1` (stereo not drawn) [Compound 218], the Dmax (read-out: VAV1 Dmax %) was 96%, the Dmax (read-out: VAV1 Dmax %, class) was greater than 90% and the DC50 (read-out: VAV1 DC50) was 9.71 nM. The DC50 [1] was no more than 100 nM.
With `O=C1CCC(c2cccc(-c3ccc(CN4CCOC4=O)cc3)c2Cl)C(=O)N1` (stereo not drawn) [Compound 219] the Dmax (read-out: VAV1 Dmax %) was 81.2%, the Dmax (read-out: VAV1 Dmax %, class) was 60 to 90% and the DC50 (read-out: VAV1 DC50) was 105 nM. It also gave a DC50 [1] of 100 to 1000 nM.
`O=C1CCC(c2cccc(-c3ccc(N4CCCCS4(=O)=O)cc3)c2Cl)C(=O)N1` (stereo not drawn) [Compound 220] was tested, and the Dmax (read-out: VAV1 Dmax %) was 77.2%, the Dmax (read-out: VAV1 Dmax %, class) was 60 to 90% and the DC50 (read-out: VAV1 DC50) was 104 nM. The DC50 [1] was 100 to 1000 nM.
With `O=C1CCC(c2cccc(-c3ccc(C(=O)N4CCC(F)(F)C4)cc3)c2Cl)C(=O)N1` (stereo not drawn) [Compound 221, 3-(2-chloro-4′-(3,3-difluoropyrrolidine-1-carbonyl)-[1,1′-biphenyl]-3-yl)piperidine-2,6-dione] the Dmax (read-out: VAV1 Dmax %) was 77.4%, the Dmax (read-out: VAV1 Dmax %, class) was 60 to 90% and the DC50 (read-out: VAV1 DC50) was 211 nM. The DC50 [1] was 100 to 1000 nM.
Compound `O=C1CCC(c2cccc(-c3ccc(C(=O)n4cccc4)cc3)c2Cl)C(=O)N1` (stereo not drawn) [Compound 222, 3-(2-chloro-4′-(1H-pyrrole-1-carbonyl)-[1,1′-biphenyl]-3-yl)piperidine-2,6-dione] has a Dmax (read-out: VAV1 Dmax %) of 91%, a Dmax (read-out: VAV1 Dmax %, class) greater than 90% and a DC50 (read-out: VAV1 DC50) of 127 nM. It also gave a DC50 [1] of 100 to 1000 nM.
For `O=C1CCC(c2cccc(-c3ccc(C(=O)N4CCCCC4)cc3)c2Cl)C(=O)N1` (stereo not drawn) [Compound 223, 3-(2-chloro-4′-(piperidine-1-carbonyl)-[1,1′-biphenyl]-3-yl)piperidine-2,6-dione], the Dmax (read-out: VAV1 Dmax %) was 96.6%, the Dmax (read-out: VAV1 Dmax %, class) was greater than 90% and the DC50 (read-out: VAV1 DC50) was 10.7 nM. It also gave a DC50 [1] of no more than 100 nM.
`O=C1CCC(c2cccc(-c3ccc(C(=O)Nc4ccno4)cc3)c2Cl)C(=O)N1` (stereo not drawn) [Compound 224, 2′-chloro-3′-(2,6-dioxopiperidin-3-yl)-N-(isoxazol-5-yl)-[1,1′-biphenyl]-4-carboxamide] was tested, and the Dmax (read-out: VAV1 Dmax %) was 51.5%, the Dmax (read-out: VAV1 Dmax %, class) was less than 60% and the DC50 (read-out: VAV1 DC50) was 7800 nM. The DC50 [1] was greater than 1000 nM.
In the case of `Cn1cccc(-c2ccc(-c3cccc(C4CCC(=O)NC4=O)c3Cl)cc2)c1=O` (stereo not drawn) [Compound 225, 3-(2-chloro-4′-(1-methyl-2-oxo-1,2-dihydropyridin-3-yl)-[1,1′-biphenyl]-3-yl)piperidine-2,6-dione], the Dmax (read-out: VAV1 Dmax %) is reported as 93.7%, the Dmax (read-out: VAV1 Dmax %, class) is reported as greater than 90% and the DC50 (read-out: VAV1 DC50) is reported as 14.4 nM. For the same compound, the DC50 [1] was no more than 100 nM.
`O=C1CCC(c2cccc(-c3ccc(-n4cccc(C(F)(F)F)c4=O)cc3)c2Cl)C(=O)N1` (stereo not drawn) [Compound 226, 3-(2-chloro-4′-(2-oxo-3-(trifluoromethyl)pyridin-1(2H)-yl)-[1,1′-biphenyl]-3-yl)piperidine-2,6-dione] showed a Dmax (read-out: VAV1 Dmax %) of 96.8%, a Dmax (read-out: VAV1 Dmax %, class) greater than 90% and a DC50 (read-out: VAV1 DC50) of 9.8 nM. The DC50 [1] was no more than 100 nM.
Compound `O=C1CCC(c2cccc(-c3ccc(NC(=O)C4CCOC4)cc3)c2Cl)C(=O)N1` (stereo not drawn) [Compound 227, N-[4-[2-chloro-3-(2,6-dioxo-3-piperidyl)phenyl]phenyl]tetrahydrofuran-3-carboxamide] has a Dmax (read-out: VAV1 Dmax %) of 77.4%, a Dmax (read-out: VAV1 Dmax %, class) of 60 to 90% and a DC50 (read-out: VAV1 DC50) of 81.8 nM. The DC50 [1] was no more than 100 nM.
